Assay results as given in the NIST ThermoML archive (doi:10.1016/j.jct.2012.11.014).
Numbers after ± are expanded uncertainties. Each block holds one compound with its values, some of them ahead of it.

Legend:
[1] = for speed of sound / viscosity / mass density: 101 kPa, Liquid; for speed of sound: Frequency=2 MHz, Linear variable-path acoustic interferometer; for viscosity: Oscillating disk viscometry; for mass density: Vibrating tube method; for Normal melting temperature: Crystal, visual observation
[2] = xn = mol fraction of the nth substance listed; conditions: 101 kPa, Liquid, x2 = 0; for speed of sound: Frequency=2 MHz, Linear variable-path acoustic interferometer; for viscosity: Oscillating disk viscometry; for mass density: Vibrating tube method

SMILES: CC(=O)[O-].C[NH+](C)C [trimethylammonium acetate]
speed of sound ([1]; 298.15 K): 1544 ± 3 m/s
viscosity ([1]; 298.15 K): 2.76 ± 0.18 mPa·s
mass density ([1]; 298.15 K): 1053.85 ± 1 kg/m3
speed of sound ([1]; 303.15 K): 1514 ± 3 m/s
viscosity ([1]; 303.15 K): 2.37 ± 0.16 mPa·s
mass density ([1]; 303.15 K): 1049.87 ± 1 kg/m3
speed of sound ([1]; 308.15 K): 1508 ± 3 m/s
viscosity ([1]; 308.15 K): 2.06 ± 0.14 mPa·s
mass density ([1]; 308.15 K): 1045.81 ± 1 kg/m3
speed of sound ([1]; 313.15 K): 1490 ± 3 m/s
viscosity ([1]; 313.15 K): 1.83 ± 0.12 mPa·s
mass density ([1]; 313.15 K): 1041.7 ± 1 kg/m3

SMILES: C[NH+](C)C.O=P([O-])(O)O [trimethylammonium dihydrogen phosphate]
speed of sound ([1]; 298.15 K): 1672 ± 3 m/s
viscosity ([1]; 298.15 K): 7.64 ± 0.52 mPa·s
mass density ([1]; 298.15 K): 1353.61 ± 1.1 kg/m3
speed of sound ([1]; 303.15 K): 1660 ± 3 m/s
viscosity ([1]; 303.15 K): 6.46 ± 0.44 mPa·s
mass density ([1]; 303.15 K): 1350.62 ± 1.1 kg/m3
speed of sound ([1]; 308.15 K): 1661 ± 3 m/s
viscosity ([1]; 308.15 K): 5.61 ± 0.37 mPa·s
mass density ([1]; 308.15 K): 1347.59 ± 1.1 kg/m3
speed of sound ([1]; 313.15 K): 1664 ± 3 m/s
viscosity ([1]; 313.15 K): 5.07 ± 0.32 mPa·s
mass density ([1]; 313.15 K): 1344.52 ± 1.1 kg/m3
Normal melting temperature [1]: 116.00 ± 1 °C

SMILES: C[NH+](C)C.O=S(=O)([O-])O [trimethylammonium hydrogen sulfate]
speed of sound ([1]; 298.15 K): 1564 ± 3 m/s
viscosity ([1]; 298.15 K): 5.1 ± 0.33 mPa·s
mass density ([1]; 298.15 K): 1467.58 ± 1.2 kg/m3
speed of sound ([1]; 303.15 K): 1560 ± 3 m/s
viscosity ([1]; 303.15 K): 4.48 ± 0.29 mPa·s
mass density ([1]; 303.15 K): 1463.57 ± 1.2 kg/m3
speed of sound ([1]; 308.15 K): 1556 ± 3 m/s
viscosity ([1]; 308.15 K): 3.94 ± 0.27 mPa·s
mass density ([1]; 308.15 K): 1463.5 ± 1.2 kg/m3
speed of sound ([1]; 313.15 K): 1552 ± 3 m/s
viscosity ([1]; 313.15 K): 3.16 ± 0.25 mPa·s
mass density ([1]; 313.15 K): 1455.63 ± 1.2 kg/m3
Normal melting temperature [1]: 129.00 ± 1 °C

More lines, now with the values ahead:

speed of sound ([1]; 298.15 K): 1496 ± 3 m/s
viscosity ([1]; 298.15 K): 1.99 ± 0.13 mPa·s
mass density ([1]; 298.15 K): 1095.37 ± 1 kg/m3
speed of sound ([1]; 303.15 K): 1472 ± 3 m/s
viscosity ([1]; 303.15 K): 1.8 ± 0.11 mPa·s
mass density ([1]; 303.15 K): 1092.41 ± 1 kg/m3
speed of sound ([1]; 308.15 K): 1460 ± 3 m/s
viscosity ([1]; 308.15 K): 1.65 ± 0.1 mPa·s
mass density ([1]; 308.15 K): 1086.06 ± 1 kg/m3
speed of sound ([1]; 313.15 K): 1442 ± 3 m/s
viscosity ([1]; 313.15 K): 1.54 ± 0.1 mPa·s
mass density ([1]; 313.15 K): 1081.43 ± 1 kg/m3
SMILES: C[S+](C)[O-] [dimethyl sulfoxide]

speed of sound ([2]; 298.15 K): 1496 ± 3 m/s
viscosity ([2]; 298.15 K): 1.99 ± 0.13 mPa·s
mass density ([2]; 298.15 K): 1095.37 ± 1 kg/m3
speed of sound ([2]; 303.15 K): 1472 ± 3 m/s
viscosity ([2]; 303.15 K): 1.8 ± 0.11 mPa·s
mass density ([2]; 303.15 K): 1092.41 ± 1 kg/m3
speed of sound ([2]; 308.15 K): 1460 ± 3 m/s
viscosity ([2]; 308.15 K): 1.65 ± 0.1 mPa·s
mass density ([2]; 308.15 K): 1086.06 ± 1 kg/m3
speed of sound ([2]; 313.15 K): 1442 ± 3 m/s
viscosity ([2]; 313.15 K): 1.54 ± 0.1 mPa·s
mass density ([2]; 313.15 K): 1081.43 ± 1 kg/m3
SMILES: C[S+](C)[O-] [dimethyl sulfoxide] + CC(=O)[O-].C[NH+](C)C

speed of sound ([2]; 298.15 K): 1496 ± 3 m/s
viscosity ([2]; 298.15 K): 1.99 ± 0.13 mPa·s
mass density ([2]; 298.15 K): 1095.37 ± 1 kg/m3
speed of sound ([2]; 303.15 K): 1472 ± 3 m/s
viscosity ([2]; 303.15 K): 1.8 ± 0.11 mPa·s
mass density ([2]; 303.15 K): 1092.41 ± 1 kg/m3
speed of sound ([2]; 308.15 K): 1460 ± 3 m/s
viscosity ([2]; 308.15 K): 1.65 ± 0.1 mPa·s
mass density ([2]; 308.15 K): 1086.06 ± 1 kg/m3
speed of sound ([2]; 313.15 K): 1442 ± 3 m/s
viscosity ([2]; 313.15 K): 1.54 ± 0.1 mPa·s
mass density ([2]; 313.15 K): 1081.43 ± 1 kg/m3
SMILES: C[S+](C)[O-] [dimethyl sulfoxide] + C[NH+](C)C.O=P([O-])(O)O

speed of sound ([2]; 298.15 K): 1496 ± 3 m/s
viscosity ([2]; 298.15 K): 1.99 ± 0.13 mPa·s
mass density ([2]; 298.15 K): 1095.37 ± 1 kg/m3
speed of sound ([2]; 303.15 K): 1472 ± 3 m/s
viscosity ([2]; 303.15 K): 1.8 ± 0.11 mPa·s
mass density ([2]; 303.15 K): 1092.41 ± 1 kg/m3
speed of sound ([2]; 308.15 K): 1460 ± 3 m/s
viscosity ([2]; 308.15 K): 1.65 ± 0.1 mPa·s
mass density ([2]; 308.15 K): 1086.06 ± 1 kg/m3
speed of sound ([2]; 313.15 K): 1442 ± 3 m/s
viscosity ([2]; 313.15 K): 1.54 ± 0.1 mPa·s
mass density ([2]; 313.15 K): 1081.43 ± 1 kg/m3
SMILES: C[S+](C)[O-] [dimethyl sulfoxide] + C[NH+](C)C.O=S(=O)([O-])O
